Patent US20180000750A1, “ANTIPLATELET AGENT AND USES THEREOF” (priority 2015, published 2018)

Tests used:
platelets [1] = assay: PFA-100 platelet function, collagen/ADP (CADP) cartridge closure time; format: cell-based, human; conditions: 10 μM, collagen/ADP stimulus, citrated whole blood
Procedure: (§1) Ten healthy, non-smoking volunteers (6 women, 4 men), ages 23-39 years old, participated in this study. The citrated whole blood samples were incubated at room temperature for 60 min. with physalin B (dissolved in 0.5% DMSO) or the vehicle alone. Platelet function measurement was performed with a PFA-100 analyzer system (Dade-Behring, Marburg, Germany). The PFA-100TM device measures the closure time (CT) required for platelets to plug an aperture simulating an injured vessel after platelet activation by relevant stimuli, namely collagen-epinephrine (EPI) or collagen-ADP (ADP). The maximum value for closure time is 300 seconds and values greater than 300 seconds are reported as non-closure. The closure time was determined with duplicate samples of 800 μL using cartridges containing collagen-epinephrine or collagen-ADP membranes.
(§2) The PFA-100 system is a platelet function analyzer designed to measure platelet-related primary hemostasis. The system uses two disposable cartridges: a collagen/epinephrine (CEPI) and a collagen/ADP (CADP) cartridge.

[2] = biological target: T1, platelet glycoprotein (GP) IIb/IIIa receptors (Homo sapiens, UniProt P05106+P08514); assay: VerifyNow GPIIb/IIIa assay (PAU); format: cell-based; conditions: no treatment 161
T1 construct: It is a whole-blood assay based on light transmission measurements; endogenous in cells; host or cells: platelets in citrated whole blood of healthy volunteers
From the text: (§3) It is a whole-blood assay based on light transmission measurements. The assay is a turbidimetric-based optical detection system that, like optical aggregometry, depends on the ability of activated platelets to bind fibrinogen. When platelets are activated, they form aggregates with fibrinogen-coated beads and the light transmission through the samples increases. Arachidonic acid, ADP and thrombin receptor activating peptide are the corresponding agonists used in VerifyNow system to specifically differentiate the platelet activation pathways. In the aspirin-specific assay, the degree of aggregation attenuated by aspirin, which blocks the arachidonic acid pathway, is quantified according to a corresponding decrease in light transmission and is reported as aspirin reaction units (ARU). ARU value less than 550 indicates adequate platelet inhibition by aspirin treatment. The residual activity of platelet after inhibition on P2Y12 receptor is represented as the P2Y12 reaction units (PRU). The normal PRU distribution range without anti-platelet therapy is 194-418. P2Y12 antagonist like clopidogrel and ticagrelor may be used as the positive control. […] The reference range was 125-330. Aggrastat may be used as the positive control medication for PAU value.
(§4) The VerifyNow P2Y12 system measures the rate and extent of changes in light transmittance caused by platelets aggregating in whole blood samples.

Tail bleeding time = format: in vivo, ICR mice; conditions: mice, intraperitoneal, 0.1 mg/Kg, cut 30 minutes after treatment; DMSO vehicle 83.1±11.7 sec
From the text: (§5) ICR mice (7-8 weeks old, each weighted about 18 to 25 g) were used in this study. All mice were maintained in the animal facility under 12 hrs light/dark cycle, with ad libitum access to food and water.
Briefly, the test mice were randomly divided into three groups, in which the control mice received intraperitoneal injection of normal saline, whereas mice in the vehicle and the test groups respectively received intraperitoneal injection of the vehicle (i.e., DMSO) and Physalin B (i.e., […]). A cut (about 2-3 mm in length) was incised on the tail vein of each mice (about 3-5 cm from the tip of the tail) 30 minutes after the indicated treatment, then the blood was collected into a warm saline, in which the volume and the time to cessation of bleeding were both measured. Bleeding time was defined as the time in which the first cessation of bleeding was observed. Results are illustrated in FIG. 2.

platelets [3] = assay: Lactate dehydrogenase release from platelets (cytotoxicity); format: cell-based; conditions: up to 160 μM, 30 min at 37° C.
Procedure: Cytotoxicity of physalin B on platelets were evaluated by measuring the release of lactate dehydrogenase (LDH). Platelets were suspended in Tyrodes's solution at a concentration of 3×10^8 platelets/ml. For positive control, platelets were disrupted by sonication at 4° C. for 30 sec at 40 kHz with a Biosonic Sonicator. The supernatant was used for LDH determinations. LDH activity was measured as an increase in the absorbance of NADH at 340 nm using lactate as substrates. The tests were carried out with a Toshiba Medical automatic chemical analyzer, TBA-200FR (Toshiba Medical products). The platelets were pretreated with various concentrations of physalin B for 30 min at 37° C., and the supernatant was used to measure the LDH activity.
In this example, the cytotoxic effect of physalin B on platelets was investigated by measuring the activity of lactate dehydrogenase (LDH) released from the ruptured platelets. The platelets were exposed to various concentrations of physalin B (PHB) or DMSO, which was used as the vehicle control, while sonication ruptured platelets served as a positive control. The final concentration of DMSO in the test medium was less than 0.1%. Results are depicted in FIG. 4.

[4] = tested on: adhesion of THP-1 to HUVECs; assay: THP-1 cell adhesion to TNF-α-activated HUVECs; format: cell-based, human; conditions: 80 μM, TNF-α-exposed cells, compared to TNF-α alone
Procedure: HUVECs were starved in serum-free medium for 1 hour before treatments. For adhesion assays, HUVECs monolayers in 96-well plates were treated for 2 hours with physalin B and/or TNF-α for 4 hours. After treatment, 1×10^6 THP-1 cells labeled with 5 μM calcein-AM were seeded onto confluent HUVECs and co-cultured for 30 min at 37° C. in 5% CO2 incubator. Non-adherent THP-1 cells were removed by washing with 1× phosphate buffered saline (PBS) twice. Cell images were collected by a fluorescence microscope (Zeiss) and quantified using a fluorescence microplate reader at an excitation wavelength of 490 nm and an emission wavelength of 525 nm (Bio-Tek Synergy HT).
The in vitro adhesion of THP-1 to HUVECs was monitored by use of a fluorescence dye, Calcein-AM, which stains only the viable cells. Briefly, THP-1 cells were labeled with calcein-AM first, then co-cultured with physalin B pre-treated HUVECs in the presence of TNF-α, which was added to induce inflammation. The fluorescence intensity at 525 nm was then measured.

late EPCs = assay: MTT cell viability, late EPCs; format: cell-based, human; conditions: 48 hrs, read-out: IC50 (cytotoxicity, MTT)
Procedure: Two different types of EPCs were cultured from adult peripheral blood and defined as early EPCs and late EPCs according to their time-dependent appearance. […] Peripheral blood (20 mL) was obtained from donors with informed consent. The mononuclear cells were fractionated from other components of peripheral blood by centrifugation on Histopaque 1077 (Sigma, St. Louis, Mo.), with gradients according to the manufacturer's instructions. The isolated mononuclear cells were re-suspended with a EGM-2 BulletKit system (catalog number CC-3162; Clonetics™) consisting of an endothelial basal medium, 5% fetal bovine serum, hEGF, VEGF, hFGF-B, IGF-1, ascorbic acid, and heparin; 1×10^7 mononuclear cells per well were seeded on 2% gelatin-coated 6-well plates (Sigma, St. Louis, Mo.) and incubated in a 5% CO2 incubator at 37° C. […]
Cell viability was measured with blue formazan that was metabolized from 3-(4,5-dimethylthiazol-2-yl)-2, 5-diphenyl tetrazolium bromide (MTT, Amresco USA) in mitochondria, which is active only in live cells. […] The absorbance of each well was measured at 540 nm with an ELISA reader and the percentage viability was calculated.
The in vitro cytotoxic effect of physalin B on HUVEC and EPCs were respectively determined by MTT assay, in which cells were exposed to various concentrations of physalin B (i.e., 0, 20, 40, 80 and 160 μM). […]

arachidonic acid pathway = assay: VerifyNow aspirin assay (ARU); format: cell-based, human; conditions: no treatment 660
From the text: as §3, §4

P2Y12 receptor = biological target: T2, P2Y12 receptor (Homo sapiens, UniProt Q9H244); assay: VerifyNow P2Y12 assay (PRU); format: cell-based; conditions: no treatment 314
T2 construct: It is a whole-blood assay based on light transmission measurements; endogenous in cells; host or cells: platelets in citrated whole blood of healthy volunteers
From the text: as §3, §4

platelets [5] = assay: PFA-100 platelet function, collagen/epinephrine (CEPI) cartridge closure time; format: cell-based, human; conditions: 10 μM, collagen-epinephrine stimulus, citrated whole blood; control 125 sec
Procedure: as §1, §2

[6] = Occlusion time for irradiation induced platelet plug formation in mesenteric venules; format: in vivo, ICR mice; conditions: mice, DMSO vehicle 241±6.8 sec
From the text: as §5
In this example, the effects of Physalin B on the aggregation of platelets were investigated by the measurement of the occlusion time for irradiation induced platelet plug formation. Briefly, mice were respectively treated with normal saline, DMSO vehicle, and Physalin B (i.e., 0.025, 0.05, or 0.1 mg/g), then the mesentertic venules were selected for irradiation to induce microthrombus formation. The occlusion time was defined as the time in which the platelet plug was first observed. Results are illustrated in FIG. 3.

HUVECs = assay: MTT cell viability, HUVECs; format: cell-based, human; conditions: 48 hrs, read-out: IC50 (cytotoxicity, MTT)
Procedure: HUVECs were purchased from American Type Culture Collection (ATCC) and were cultivated in endothelal cell nutrient medium consisting of 20% heat-inactivated fetal bovine serum (FBS), 80% Medium 199 (M199) buffered with 25 mM HEPES and supplemented with 2 mM L-Glutamine and 100 U/ml K-Penicillin and 100 μg/mL streptomycin, and kept at 37° C. in a 5% CO2 atmosphere.
Cell viability was measured with blue formazan that was metabolized from 3-(4,5-dimethylthiazol-2-yl)-2, 5-diphenyl tetrazolium bromide (MTT, Amresco USA) in mitochondria, which is active only in live cells. HUVEC and late EPCs were seeded in a 96-well plate at a density of 1×10^5 cells per well, cultured overnight and pretreated with various concentrations of physalin B. After incubation for 6 hr, 24 hr and 48 hr, the MTT (5 mg/ml) colorimetric viability test was used to determine the viability of cells. The absorbance of each well was measured at 540 nm with an ELISA reader and the percentage viability was calculated.
The in vitro cytotoxic effect of physalin B on HUVEC and EPCs were respectively determined by MTT assay, in which cells were exposed to various concentrations of physalin B (i.e., 0, 20, 40, 80 and 160 μM). Results are illustrated in FIGS. 5A and 5B.

[7] = reference drug treatment, normal range 194-418

T1 sequence (P08514 32-887 limits assumed): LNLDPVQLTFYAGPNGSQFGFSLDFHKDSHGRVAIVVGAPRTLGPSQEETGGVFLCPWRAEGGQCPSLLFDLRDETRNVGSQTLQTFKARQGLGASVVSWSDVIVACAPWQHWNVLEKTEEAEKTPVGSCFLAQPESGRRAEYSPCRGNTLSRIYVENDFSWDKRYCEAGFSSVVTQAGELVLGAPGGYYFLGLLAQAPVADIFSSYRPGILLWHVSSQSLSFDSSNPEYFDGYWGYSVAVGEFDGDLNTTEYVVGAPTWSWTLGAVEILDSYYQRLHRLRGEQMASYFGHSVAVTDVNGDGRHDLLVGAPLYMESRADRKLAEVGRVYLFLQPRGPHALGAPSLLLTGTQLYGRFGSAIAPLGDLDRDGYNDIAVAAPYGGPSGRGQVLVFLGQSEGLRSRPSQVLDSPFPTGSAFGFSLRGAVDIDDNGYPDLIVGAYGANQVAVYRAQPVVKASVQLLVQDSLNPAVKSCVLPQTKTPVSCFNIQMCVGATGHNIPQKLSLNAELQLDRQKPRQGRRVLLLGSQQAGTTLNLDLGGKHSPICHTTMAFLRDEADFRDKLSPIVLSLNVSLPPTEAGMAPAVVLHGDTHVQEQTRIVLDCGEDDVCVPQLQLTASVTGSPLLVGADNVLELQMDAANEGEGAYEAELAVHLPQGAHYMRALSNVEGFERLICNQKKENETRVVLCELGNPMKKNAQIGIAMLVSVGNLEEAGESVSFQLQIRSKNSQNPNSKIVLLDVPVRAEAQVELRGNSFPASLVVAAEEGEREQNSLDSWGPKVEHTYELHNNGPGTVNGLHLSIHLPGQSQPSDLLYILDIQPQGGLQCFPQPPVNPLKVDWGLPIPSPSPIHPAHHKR
T1 sequence (P08514 891-1039 limits assumed): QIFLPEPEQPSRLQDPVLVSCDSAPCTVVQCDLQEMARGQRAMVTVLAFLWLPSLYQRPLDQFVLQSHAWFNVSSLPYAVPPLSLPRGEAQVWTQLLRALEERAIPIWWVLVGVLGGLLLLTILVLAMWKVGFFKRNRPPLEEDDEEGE
T1 sequence (P05106 27-788): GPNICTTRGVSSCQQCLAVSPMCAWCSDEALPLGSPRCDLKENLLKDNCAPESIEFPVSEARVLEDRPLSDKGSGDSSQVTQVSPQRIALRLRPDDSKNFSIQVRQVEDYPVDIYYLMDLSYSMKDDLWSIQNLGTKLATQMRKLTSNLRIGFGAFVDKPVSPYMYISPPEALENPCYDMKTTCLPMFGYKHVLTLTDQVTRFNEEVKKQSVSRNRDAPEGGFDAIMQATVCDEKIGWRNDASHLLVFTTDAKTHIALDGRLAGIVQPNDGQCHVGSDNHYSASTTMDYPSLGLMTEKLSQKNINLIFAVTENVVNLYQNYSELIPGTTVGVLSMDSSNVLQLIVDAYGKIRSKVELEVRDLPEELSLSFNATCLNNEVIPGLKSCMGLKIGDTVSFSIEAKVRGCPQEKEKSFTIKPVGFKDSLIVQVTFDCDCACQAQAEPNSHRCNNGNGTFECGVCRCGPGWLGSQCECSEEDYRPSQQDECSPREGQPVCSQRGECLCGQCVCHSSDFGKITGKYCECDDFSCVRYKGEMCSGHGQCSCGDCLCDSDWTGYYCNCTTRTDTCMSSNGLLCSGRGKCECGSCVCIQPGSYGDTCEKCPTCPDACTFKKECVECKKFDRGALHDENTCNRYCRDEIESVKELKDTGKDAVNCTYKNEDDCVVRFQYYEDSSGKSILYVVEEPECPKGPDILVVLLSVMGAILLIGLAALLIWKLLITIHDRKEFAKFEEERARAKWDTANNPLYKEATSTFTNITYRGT
T2 sequence (Q9H244 whole entry): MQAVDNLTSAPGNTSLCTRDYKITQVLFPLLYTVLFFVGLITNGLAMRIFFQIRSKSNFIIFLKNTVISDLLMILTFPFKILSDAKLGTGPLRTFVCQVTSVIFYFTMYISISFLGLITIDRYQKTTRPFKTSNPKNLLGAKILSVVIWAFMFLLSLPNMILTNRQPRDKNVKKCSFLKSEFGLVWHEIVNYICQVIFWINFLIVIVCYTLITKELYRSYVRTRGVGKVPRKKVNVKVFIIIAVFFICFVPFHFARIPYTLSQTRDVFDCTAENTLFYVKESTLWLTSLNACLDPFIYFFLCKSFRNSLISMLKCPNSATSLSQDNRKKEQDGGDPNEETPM

C[C@]12C(=O)C=CCC1=CC[C@@H]1[C@@H]2CC[C@]2(O)C(=O)O[C@@]3(C)[C@H]4C[C@]5(C)[C@@H](CO[C@@]16O[C@@]32[C@H]5C6=O)C(=O)O4 [Physalin B]
closure time (platelets [1]): statistically significant prolonged closure time | GPIIb/IIIa (PAU) ([2]; 20 μM): 144 PAU | GPIIb/IIIa (PAU) ([2]; 50 μM): 129 PAU | tail bleeding time (Tail bleeding time): 224.4 ± 58.9 s | LDH release from platelets (platelets [3]): no obvious LDH release | inhibition on the adhesion of THP-1 to HUVECs [4]: about 35% | IC50 (late EPCs): 76 µM | Aspirin (ARU) (arachidonic acid pathway; 20 μM): 469 ARU | Aspirin (ARU) (arachidonic acid pathway; 50 μM): 366 ARU | P2Y12 (PRU) (P2Y12 receptor; 20 μM): 226 PRU | P2Y12 (PRU) (P2Y12 receptor; 50 μM): 65 PRU | closure time (platelets [5]): 260 s | occlusion time ([6]; 0.025 mg/g): 349 ± 12.3 s | occlusion time ([6]; 0.05 mg/g): 390 ± 7 s | occlusion time ([6]; 0.1 mg/g): 415 ± 34.5 s | IC50 (HUVECs): 30 µM

CCCCS(=O)(=O)N[C@@H](Cc1ccc(OCCCCC2CCNCC2)cc1)C(=O)O [Aggrastat, reference compound]
GPIIb/IIIa (PAU) ([2]; reference drug treatment, reference range 125-330): 1 PAU

CC(=O)Oc1ccccc1C(=O)O [Aspirin, Acetylsalicylic acid, reference compound]
Aspirin (ARU) (arachidonic acid pathway; reference drug treatment, <550 indicates adequate inhibition): 404 ARU

COC(=O)[C@H](c1ccccc1Cl)N1CCc2sccc2C1 [Clopidogrel, reference compound]
P2Y12 (PRU) (P2Y12 receptor; [7]): 263 PRU

CCCSc1nc(N[C@@H]2C[C@H]2c2ccc(F)c(F)c2)c2nnn([C@@H]3C[C@H](OCCO)[C@@H](O)[C@H]3O)c2n1 [Ticagrelor, reference compound]
P2Y12 (PRU) (P2Y12 receptor; [7]): 1 PRU
